According to patent US20210186923A1, “THERAPEUTIC FORMULATIONS AND USES THEREOF” (PIEDMONT ANIMAL HEALTH INC., priority 2017, published 2021):

Key:
[1] = system: dogs with naturally occurring coxofemoral joint disease; details: dog, in vivo, po, 3 mg/kg
Experimental: (§1) Efficacy was determined by rear limb using a quantified kinetic gait analysis.

[2] = system: dogs with naturally occurring coxofemoral joint disease; experiment: PAH-100 oral tablet efficacy (PAH16-013), kinetic gait analysis; details: for abnormal clinical observations or adverse events: nine hound dogs, each received all treatments, PAH-100 single oral 3 mg/kg, carprofen 4.4 mg/kg PO q24 hr, 7 doses
Experimental: as §1

Structure (SMILES)	tolerability [1]	limb use by kinetic gait analysis, compared to no treatment and daily carprofen ([2]; dogs with coxofemoral joint osteoarthritis, single oral 3 mg/kg, over 7 days, majority of kinetic outcomes)	abnormal clinical observations or adverse events [2]
O=C(O)C1=Cc2cc(OC(F)(F)F)ccc2OC1C(F)(F)F (racemic) [PAH-100, (±)-6-(trifluoromethoxy)-2-(trifluoromethyl)-2H-chromene-3-carboxylic acid]	well tolerated	improved limb use	No abnormal clinical observations or adverse events
CC(C(=O)O)c1ccc2c(c1)[nH]c1ccc(Cl)cc12 (stereo not shown) [carprofen, reference compound]	–	–	No abnormal clinical observations or adverse events
